# Measured values from patent publication US20130224110A1, “USE OF ADENOSINE RECEPTOR SIGNALING TO MODULATE PERMEABILITY OF BLOOD-BRAIN BARRIER” (CORNELL UNIVERSITY, priority 2010, published 2013).
# B1: PEG-ADA: PEGylated adenosine deaminase (protein, UniProt P56658 2-363, looked up)
# Adenosine deaminase: AQTPAFNKPKVELHVHLDGAIKPETILYYGRKRGIALPADTPEELQNIIGMDKPLSLPEFLAKFDYYMPAIAGCREAVKRIAYEFVEMKAKDGVVYVEVRYSPHLLANSKVEPIPWNQAEGDLTPDEVVSLVNQGLQEGERDFGVKVRSILCCMRHQPSWSSEVVELCKKYREQTVVAIDLAGDETIEGSSLFPGHVKAYAEAVKSGVHRTVHAGEVGSANVVKEAVDTLKTERLGHGYHTLEDATLYNRLRQENMHFEVCPWSSYLTGAWKPDTEHPVVRFKNDQVNYSLNTDDPLIFKSTLDTDYQMTKNEMGFTEEEFKRLNINAAKSSFLPEDEKKELLDLLYKAYGMPSPASAEQCL
# modifications: PEGylated
# notes: PEGylated adenosine deaminase
# How the values were obtained:
# hCMEC/D3 cells = assay: Jurkat cell migration across hCMEC/D3 transwell in vitro BBB; format: cell-based, human; details: 24 hours
# Experimental: hCMEC/D3 cells were seeded onto Transwell and allowed to grow to confluencey. 2×10^6 Jurkat cells were added to the upper chamber with or without NECA (general adenosine receptor [AR] agonist), CCPA (A1 AR agonist), CGS 21860 (A2A AR agonist), or DMSO vehicle. After 24 hours, migrated cells in the lower chamber were counted. Values are relative to the number of cells that migrate through non-[…]3 seeded transwells.
# Z310 cells = assay: Jurkat cell migration across Z310 choroid plexus cell transwell; format: cell-based, murine; details: 24 hours, n=1
# Experimental: To test the hypothesis, Transwell membranes were seeded with Z310 cells and allowed to grow to confluencey. 2×10^6 Jurkat cells were added to the upper chamber with or with out NECA (n=1, general AR agonist), CCPA (n=1, A1 AR agonist), CGS 21860 (n=1, A2A AR agonist), or DMSO vehicle(n=1). After 24 hours, migrated cells in the lower chamber were counted. Values are relative to the number of cells that migrate through non-Z310 seeded transwells and the results are shown in FIG. 12.
# HCMECD3 cells = assay: cAMP levels in human brain endothelial cells (cAMP Screen kit); format: cell-based; details: 15 minutes
# Experimental: […]3 cells were grown to confluencey on 24 well plates. As adenosine receptor (“AR”) stimulation is known to influence cAMP levels, cells were treated with or without various concentrations of NECA (general AR agonist), CCPA (A1 AR agonist), CGS 21860 (A2A AR agonist), DMSO vehicle, or Forksolin (induces cAMP). After 15 minutes, lysis buffer was added and the cells were frozen at -80 C to stop the reaction. Duplicate samples were used for each condition. cAMP levels were assayed using a cAMP Screen kit (Applied Biosystems, Foster City, Calif.).
# blood brain barrier = assay: Fluorescently labeled dextran extravasation into mouse brain (fluorimetry); format: in vivo, mice; details: wild type mice, 10,000 Da FITC-dextran, i.v., 3 h, vs vehicle
# Experimental: The adenosine receptor agonists NECA, CCPA, CGS 21860, and SCH 58261 (Tocris, Ellisville, Mo.) were each dissolved in DMSO then diluted in PBS to the desired concentration; in most cases final DMSO concentrations were <0.5% (vol/vol). Lexiscan (Regadenoson; TRC, Inc., Toronto) was dissolved in PBS. For vehicle controls, DMSO was diluted in PBS to the same concentration. Dehydrated dextrans labeled with either FITC or Texas Red (Invitrogen, Carlsbad, Calif.) were re-suspended in PBS to 10 mg/ml. All experiments involving dextran injection used 1.0 mg dextran in PBS. In experiments where drug and dextran were injected concomitantly, 1.0 mg of dextran was mixed with the drug to the desired concentration in a final volume of 200 μl. In dose-response experiments, drugs and dextrans were injected concomitantly. All injections, except injections of SCH 58261, were retro-orbital i.v. with a 27-gauge needle. In the SCH 58261 experiment, SCH 58261 injections, 1 mg/kg, were intraperitoneal and mice were pre-dosed with this concentration daily for 4 days prior to the day of the experiment. An additional injection was administered at the time of the experiment. Vehicle/drug and dextrans were injected on day 5 and tissues were collected 3 h after vehicle/drug administration. In Lexiscan experiments, Lexiscan was administered i.v. with 3 injections, 5 min apart and tissues were collected at 15 min unless otherwise indicated.
# In dose-response experiments and experiments with the A1 AR and A2A AR knock-out mice, drugs and dextrans were injected concomitantly. After 3 h, the mice were anesthetized with ketamine/xylazine and subjected to a nose cone containing isoflurane. They were perfused with 25-50 ml ice-cold PBS through the left ventricle of the heart then decapitated. Their brains were removed, weighed and frozen for later analysis.
# Ice-cold 50 mMTris-Cl (pH 7.6) was added to frozen brains (100 μl per 100 mg brain) and were to thawed on ice. They were homogenized with a dounce homogenizer and centrifuged at […] in a microfuge for 30 min at room temperature (rt). The supernatants were transferred to new tubes and an equal volume absolute methanol was added. The samples were centrifuged again at […] for 30 min at rt. Supernatant (200 μl) was transferred to a Corning costar 96 well black polystyrene assay plate (clear bottom). Additionally, a series of standards containing 0.001-10 pg/ml dextran in 50% Tris-Cl/50% absolute methanol (vol/vol) was added to each plate. Absolute concentrations of dextrans were derived from these standard curves. Fluorimetric analysis was performed on a BioTek (Winooski, Vt.) Synergy 4. FITC-dextran was detected at 488/519 (excitation/emission) and Texas Red-dextran was detected at 592/618.
# [1] = Klabunde 1983; cited from earlier work
# EAE = EAE induction and scoring (MOG35-55/CFA/PTX); format: in vivo, mice
# Description: Cd73^−/− mice have been previously described (Thompson et al., “Crucial Role for Ecto-5′-Nucleotidase (CD73) in Vascular Leakage During Hypoxia,” J. Exp. Med. 200:1395-1405 (2004), which is hereby incorporated by reference in its entirety) and have been backcrossed to C57BL/6 for 14 generations. Cd73^−/− mice have no overt susceptibility to infection and appear normal based on the size and cellular composition of their lymphoid organs and their T and B cell responses in in vivo and in vitro assays (Thompson et al., “Crucial Role for Ecto-5′-Nucleotidase (CD73) in Vascular Leakage During Hypoxia,” J. Exp. Med. 200:1395-1405 (2004), which is hereby incorporated by reference in its entirety). C57BL/6 and tcrα^−/− mice on the C57BL/6 background were purchased from The Jackson Laboratories. Mice were bred and housed under specific pathogen-free conditions at Cornell University or the University of Turku. For adenosine receptor blockade experiments, mice were given drinking water supplemented with 0.6 g/L of caffeine (Sigma) or 2 mg/kg SCH58261 (1 mg/kg s.c. and 1 mg/kg i.p.) in DMSO (45% vol. in PBS) or 45% DMSO alone starting 1 day before EAE induction and continuing throughout the experiment. All procedures performed on mice were approved by the relevant animal review committee.
# EAE was induced by subjecting mice to the myelin oligodendrocyte glycoprotein (“MOG”) EAE-inducing regimen as described in Swanborg, “Experimental Autoimmune Encephalomyelitis in Rodents as a Model for Human Demyelinating Disease,” Clin. Immunol. Immunopathol. 77:4-13 (1995) and Bynoe et al., “Epicutaneous Immunization with Autoantigenic Peptides Induces T Suppressor Cells that Prevent Experimental Allergic Encephalomyelitis,” Immunity 19:317-328 (2003), which are hereby incorporated by reference in their entirety. […] Mice were scored daily for EAE based on disease symptom severity; 0=no disease, 0.5-1=weak/limp tail, 2=limp tail and partial hind limb paralysis, 3=total hind limb paralysis, 4=both hind limb and fore limb paralysis, 5=death. […]
# As CD73 catalyzes the breakdown of AMP to adenosine and ARs are expressed in the CNS (Tsutsui et al., “A1 Adenosine Receptor Upregulation and Activation Attenuates Neuroinflammation and Demyelination in a Model of Multiple Sclerosis,” J. Neurosci. 24:1521-1529 (2004)); Rosi et al., The Influence of Brain Inflammation Upon Neuronal Adenosine A2B Receptors,” J. Neurochem. 86:220-227 (2003), which are hereby incorporated by reference in their entirety), it was next determined if AR signaling is important during EAE progression. […] Since CD73 is highly expressed on the choroid plexus (FIG. 6C), it was next determined if ARs are also expressed on the choroid plexus. […]
# Bend.3 cells = assay: F-actin (phalloidin) staining of endothelial cells; format: cell-based, mouse; details: BECs, 1 μM, 3 or 30 min, vs vehicle
# Experimental: Bend.3 cells were grown (as described above) on circular cover slips in 24-well plates. Cells were treated for 3 or 30 min with 1 μM CCPA, 1 μM […], DMSO or media alone. Cover slips were washed with PBS, fixed in 4% paraformaldahyde, washed again in PBS and then permeabilized with 0.5% TritonX-100 in PBS. After washing in PBS/1% BSA, cover slips were blocked with 1% BSA then stained with Phallodin-Alexa 568. Cover slips were washed and mounted on slides with ProlongGold containing DAPI (Invitrogen). Images were obtained on an Olympus BX51 fluorescent microscope.
Molecule,lymphocyte (Jurkat) migration across the in vitro BBB (hCMEC/D3 cells),lymphocyte (Jurkat) migration across the CP (Z310 cells),cAMP levels (HCMECD3 cells),dextran entry into the CNS (blood brain barrier),further results
"CCNC(=O)[C@H]1O[C@@H](n2cnc3c(N)nc(NCCc4ccc(CCC(=O)O)cc4)nc32)[C@H](O)[C@@H]1O [CGS 21680, 4-[2-[[6-Amino-9-(N-ethyl-b-D-ribofuranuronamidosyl)-9H-purin-2-yl]amino]ethyl]benzenepropanoic acid]",promoted lymphocyte migration across the in vitro BBB when used at a lower concentration,promoted lymphocyte migration across the CP,slightly increased cAMP levels,increased dextran entry into the CNS,
Nc1ncnc2c1ncn2[C@@H]1O[C@H](CO)[C@@H](O)[C@H]1O [adenosine],,,,,half-life [1]: < 10 s
Cn1c(=O)c2c(ncn2C)n(C)c1=O [caffeine],,,,,"EAE development (EAE; cd73−/− mice, caffeine 0.6 g/L in drinking water): did not develop EAE; EAE development (EAE; wild type mice, caffeine 0.6 g/L in drinking water from 1 day prior to and throughout EAE experiment): dramatically protected against EAE development"
"OC[C@H]1O[C@@H](n2cnc3c(NC4CCCC4)nc(Cl)nc32)[C@H](O)[C@@H]1O [CCPA, 2-chloro-N^6-cyclopentyladenosine]",induced lymphocyte migration at high levels,induced lymphocyte migration at high levels,increased cAMP levels,increased dextran entry into the CNS,actinomyosin stress fiber formation (Bend.3 cells): marked induction of actinomycin stress fibers
B1,,,,,"EAE development (EAE; wild-type mice, 15 units/kg i.p. every 4 days, vs PBS vehicle): inhibits the development of EAE"
